# PMC10223284, “Category-Based Toxicokinetic Evaluations of Data-Poor Per- and Polyfluoroalkyl Substances (PFAS) using Gas Chromatography Coupled with Mass Spectrometry” (Toxics, 2023)
# “And” between values parts separate entries of the source, which are not always exact repeats. Equal values may be shown once. Read-outs that look alike come from different tables or passages of the source.
# Assays:
# [1] = test system: pooled human cryopreserved primary hepatocyte suspensions; assay: Hepatic metabolic stability (hepatocyte clearance) assay, substrate depletion; assay type: in vitro ADME
# Procedure, shortened: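 Substrate depletion of 1 μM compound, 37 °C, with pooled human hepatocytes (50-donor, 50,000 cells/100 μL) in William's E; samples quenched in acetonitrile up to 240 min, triplicate time points. Intrinsic clearance (μL/min/million hepatocytes) and half-life derived from semi-log slope, background-adjusted using media-only and inactivated-cell controls; compounds with ≥50% abiotic loss at T120 excluded.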
# [2] = Abiotic loss in negative controls of the hepatocyte clearance assay (cell-free media, metabolically inactivated hepatocytes); assay type: in vitro ADME
# Procedure, shortened: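 Abiotic stability was checked with media-only and inactivated-hepatocyte controls, run at T0 and T240 or, on rerun, at more time points. Compound at 1 μM, 37 °C, acetonitrile quench. Loss rates served for background subtraction, and ≥50% loss by T120 meant exclusion.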
# [3] = In vitro-in vivo extrapolation (IVIVE) to Css and administered equivalent dose (AED); set-up: species or system human
# Method: Using the experimentally generated PPB (fraction unbound in plasma, fup) and hepatic Clint data, IVIVE was performed as previously described to calculate human steady-state plasma concentrations (Css). Briefly, experimental measures of fup are adjusted using blood:plasma partitioning information to estimate the fraction unbound in blood (fub). Experimental hepatocyte Clint data are scaled up to represent whole-liver clearance (L/h). […] Once estimated, these Css values are considered in conjunction with published in vitro bioactivity concentrations (i.e., lowest-observed effective concentrations, or LOECs) to calculate AEDs (Table 2). See Table S10 for all relevant IVIVE inputs, scalars, calculations, and outputs.
# human plasma [4] = conditions: for Mean fu: plasma
# human plasma [5] = conditions: for PPB_Stab_Fail / % remaining_PPB: plasma
# Method: Three replicates were run per experiment, with 4NT included as a reference compound in each to evaluate assay performance. All PFAS and 4NT, prepared at a 3 mM working stock, were added to human plasma to achieve a final, thoroughly mixed assay concentration of 10 μM, incubated at 37 °C for 1 h with shaking. […] After UC, the aqueous fraction (AF; i.e., supernatant devoid of plasma proteins/lipoproteins/fatty acids) was collected and transferred to a new tube. The second aliquot maintained at 37 °C was collected (T5hr). At the relevant time points, each volume of sample was combined with 3 volumes of vigorously mixed ice-cold acetonitrile with the labeled IS and stored for 10 min at −20 °C prior to centrifugation at 12,000× g for 10 min at 4 °C. The supernatant was collected and stored at <−70 °C until quantitative analysis. […] Furthermore, chemical stability in plasma over the assay time course was assessed using the T1hr and T5hr samples.
# Percent chemical remaining at the end of the UC assay (T5hr/T1hr) was used to remove unstable chemicals from further evaluation.
# human primary cells = conditions: cited from earlier work
# in vitro = conditions: both, human, plasma
# [6] = flag for stability failure in hepatocyte clearance assay controls (1 or Fst = fail, 0 = pass)
structure (smiles),measurement,setting,value
NC(=O)C(F)(F)C(F)(F)F [Pentafluoropropionamide],"Concentration (nM), Time 120 min","[1]; both, human, 120 min, 1 μM",809.577 nM
same,In Vitro Clint,"[1]; both, human, hepatocytes, 1 μM",0.00 μL/min/10^6 cells
same,in vitro CLint,"[1]; both, human, hepatocytes, 1 μM",0 mL/min/106 cells
same,"Linear Regression Results, Best-Fit Values, Slope",[1]; hepatocyte time course,-0.00227
same,Bkgd-Sub Clearance (µL/min/106 hepatocytes),"[1]; human, hepatocytes",0.00 µL/min/106 hepatocytes
same,Bkgd_adj_Clint,"[1]; human, hepatocytes",0.00
same,Unadj Clint,"[1]; human, hepatocytes",0.00
same,Unadj in vitro Clint,"[1]; human, hepatocytes",0.00
same,clearance rate in hepatocytes,"[1]; human, hepatocytes",no clearance
same,Clint.1.Med,"[1]; human, s9",0
same,"No Cells BkgdCl, Clearance",[2]; 1 μM,7.66
same,half-life at 1 μM,"[2]; both sexes, human, hepatocytes",3.65 h
same,"HT BkgdCl, Clearance","[2]; both, human, 1 μM",6.324
same,Hep_Stab_Fail,"[2]; both, human, 120 min, 1 μM",0
same,half-life at 1 μM,[2]; buffer,3.02 h
same,"HT BkgdCl, Slope","[2]; heat treated hepatocytes control, 0 vs 240 min",-0.003162
same,"No Cells BkgdCl, Slope","[2]; no cells control, 0 vs 240 min",-0.00383
same,Css,"[3]; Assuming 1 mg/kg/day dose rate, BW 70 kg",0.44 mg/L and 2.69 uM
same,Clhep,"[3]; IVIVE, hepatocyte Clint scaled to whole-liver clearance",0.000 L/h
same,AED,[3]; administered equivalent dose from LOEC and Css,7.4314 mg/kg/day
same,Fub,"[3]; fub=fup/(B:P), Fub set to 1 if needed",1
same,Css,"[3]; human steady-state plasma concentration, assuming 1 mg/kg/day dosage",2.69 µM
same,Css,"[3]; human steady-state plasma concentration, assuming 1 mg/kg/day dosage, listed as pentafluoropropionamide",2.1 to 2.7 µM
same,CLint,"[3]; scaled with HPGL 110 mill cells/g, Vl 1596 g",0 µL/min
same,Fup.Med,"human plasma [4]; both, human, 5 h, 10 μM",0.754
same,Fup.point,"human plasma [4]; both, human, 5 h, 10 μM",0.789
same,Unstable,human plasma [5],Y
same,Fstable.Med,"human plasma [5]; both, human, 5 h, 10 μM",0.19
same,Mean Stability,"human plasma [5]; both, human, 5 h, 10 μM",0.711
same,"Stability (T5hr/ T1hr), Run-specific Avg","human plasma [5]; both, human, 5 h, 10 μM",0.719
same,PPB_Stab_Fail,"human plasma [5]; both, human, 5 h, 10 μM",0
same,LOEC,human primary cells; BioSeek lowest-observed effect concentration used for AED,20.00 µM
same,LOEC,"human primary cells; minimum lowest-observed effect concentration, BioSeek platform",20 µM
same,"fraction unbound at 5 h, 10 μM","in vitro; Fraction Unbound (fu), Run-specific Avg",0.81
same,"fraction unbound at 5 h, 10 μM","in vitro; Fraction Unbound (fu), replicates A, B, C",0.788
same,"fraction unbound at 5 h, 10 μM",in vitro; Mean Fu,0.809
same,"fraction unbound at 5 h, 10 μM",in vitro; Mean fu,0.809
C=C(C)C(=O)OCCC(F)(F)C(F)(F)C(F)(F)C(F)(F)C(F)(F)C(F)(F)C(F)(F)C(F)(F)F [8:2 Fluorotelomer methacrylate],Hep_Stab_Fail,[2]; [6],1
same,Fup.Med,human plasma [4],0.0461
same,Fup.point,human plasma [4],0.0503
same,Mean fu,human plasma [4]; human,0.09
same,Fstable.Med,human plasma [5],0.0797
same,Unstable,human plasma [5],Y
same,% remaining_PPB,human plasma [5]; human,66%
same,PPB_Stab_Fail,human plasma [5]; human,0
"C=C(C)C(=O)OCC(F)(F)C(F)(F)C(F)(F)C(F)(F)C(F)(F)C(F)(F)C(F)(F)F [1H,1H-Perfluorooctyl methacrylate]",Hep_Stab_Fail,[2]; [6],1
same,Fup.Med,human plasma [4],0.0638
same,Fup.point,human plasma [4],0.0665
same,Mean fu,human plasma [4]; human,0.1300
same,Fstable.Med,human plasma [5],0.042
same,Unstable,human plasma [5],Y
same,% remaining_PPB,human plasma [5]; human,49%
same,PPB_Stab_Fail,human plasma [5]; human,0
